In patent publication US8114846B2, “Combined treatment with an EGFR kinase inhibitor and an agent that sensitizes tumor cells to the effects of EGFR kinase inhibitors” (OSI Pharmaceuticals, LLC, priority 2006, dated 2012):
Converted amounts (≈) assume the structure as drawn. “Also recorded” adds a separate entry of the source.

Legend:
BxPC3 cells = assay: Cell proliferation (Cell Titer Glo), BxPC3; format: cell-based, human; conditions: 10 μM erlotinib, 72 hours; maximal growth inhibition greater than 50% = high sensitivity
Procedure: (§1) The cell lines H460, Calu6, SW1573, H1703, H292, H358, HCT-116, HT-29, FET, GEO, SW480, Colo205 CBS, BxPC3, HPAC, CFPAC, MiaPaca-2, Panc1, MDA-MB-468, BT-20, MDA-MB-435 H441, H322, A1165, Igrov-1, Ovcar-3, CA-OV-3, MDAH2774, SW626, SKOV-3, Cal-27, RPMI 2650, and MDA-MB-231 were grown in media as prescribed by the ATCC, containing 10% FCS. Hsc-2, Hsc-4 and OVK-18 were obtained from the Riken Cell Bank and were cultured according to the Riken Cell Bank recommended conditions.

Calu-6 NSCLC tumor cells = assay: Calu6 xenograft model; format: in vivo, mice; conditions: day 19; Tarceva 100 mg/kg daily oral, or rapamycin 4 mg/kg i.p. day 1, 8, 15
Text: Female CD-1 nu/nu mice (Charles River Laboratories, Wilmington, Mass.) were implanted with harvested Calu-6 NSCLC tumor cells in a single subcutaneous site on the flank of the mice in the axillary region. Tumors were allowed to grow to 200+50 mm^3, at which time the animals were sorted into treatment groups (see below) of 8 animals per group, having approximately equal body weight (+/−1 g) within a group, and tattooed on the tail for permanent identification. Tumor volumes and body weights were determined twice weekly. The tumor volume was determined by measuring in two directions with vernier calipers and calculated using the formula: Tumor volume=(length×width^2)/2. The data were plotted as the % change in mean values of tumor volume and body weight for each group. The tumor growth inhibition (% TGI) was determined as % TGI=100(1−Wt/Wc): where Wt is the median tumor volume of the treated group at time x and We is the median tumor volume of the control group at time x. Tarceva was dosed in a 6% Captisol (CyDex, Inc) in WFI (Water for Injection) solution and all control animals were dosed with an equal volume of the vehicle. Tarceva animals were dosed by oral gavage once a day for 18 days and the % TGI measured on day 19. Rapamycin was dosed in 4% ethanol/5% PEG400/5% Tween 80 in WFI. […]

H292 cells = assay: Cell proliferation (Cell Titer Glo), H292; format: cell-based, human; conditions: 10 μM erlotinib, 72 hours; maximal growth inhibition greater than 50% = high sensitivity
Procedure: as §1

H358 cells = conditions: 10 μM erlotinib, 72 hours; maximal growth inhibition greater than 50% = high sensitivity
Procedure: (§2) Measurement of Cell Proliferation: Cell proliferation was determined using the Cell Titer Glo assay (Promega Corporation, Madison, Wisc.). Cell lines were seeded at a density of 3000 cells per well in a 96-well plate. 24 hours after plating cells were dosed with varying concentrations of drug, either as a single agent or in combination. The signal for Cell Titer Glo was determined 72 hours after dosing.
(§3) Analysis of Additivity and Synergy: The Bliss additivism model was used to classify the effect of combining rapamycin and erlotinib as additive, synergistic, or antagonistic. A theoretical curve was calculated for combined inhibition using the equation: Ebliss=EA+EB−EA*EB, where EA and EB are the fractional inhibitions obtained by drug A alone and drug B alone at specific concentrations. […] If the experimentally measured fractional inhibition is less than Ebliss the combination was said to be synergistic. If the experimentally measured fractional inhibition is greater than Ebliss the combination was said to be antagonistic. For dose response curves, the Bliss additivity value was calculated for varying doses of drug A when combined with a constant dose of drug B. This allowed an assessment as to whether drug B affected the potency of drug A or shifted its intrinsic activity. All plots were generated using PRISM® software (Graphpad Software, San Diego, Calif.).

[1] = tested on: one ovarian and one HNSCC cell line; assay: Apoptosis (Caspase 3/7 Glo), one ovarian and one HNSCC cell line; format: cell-based, human
Procedure: as §1

HCT-116 cells = conditions: 10 μM erlotinib, 72 hours; maximal growth inhibition greater than 50% = high sensitivity
Procedure: as §2, §3

[2] = tested on: 22 cell lines derived from NSCLC, colon, pancreatic, and breast tumors; assay: cells; conditions: Homo sapiens, read-out: IC50 value
Procedure: as §2, §3

[3] = tested on: phosphorylation of S6 (readout for the activity of mTOR); assay: Western blot of S6 phosphorylation in tumor cell lines; format: cell-based, human; conditions: 2 hours
Procedure: Preparation of Protein Lysates and Western Blotting:
With the exception of total ErbB3 (obtained from Santa Cruz Biotechnology, Inc., Santa Cruz, Calif.), all antibodies were obtained from Cell Signaling Technology, Inc. (Danvers, Mass.). For analysis of erlotinib's effect on the phosphorylation of downstream signaling proteins, cell lines were grown to approximately 70% confluency, at which time erlotinib was added at the indicated concentration, and cells were incubated at 37° C. for two hours. Where indicated, 10 ng/ml EGF ligand was added for 5 minutes. The media was removed, cells were washed two times with PBS, and cells were lysed as previously described.

Calu6 cells = conditions: 10 μM erlotinib, 72 hours; maximal growth inhibition greater than 50% = high sensitivity
Procedure: as §2, §3

three ovarian cell lines = assay: Apoptosis (Caspase 3/7 Glo), ovarian cell lines; format: cell-based, human; conditions: 20 μM Compound A or 10 μM erlotinib
Procedure: as §1

[4] = Solubility limit of erlotinib; format: physicochemical
H460 cells = assay: Cell proliferation (Cell Titer Glo), H460; format: cell-based, human
Procedure: as §1

pAkt (S473) = pAkt (S473) in cancer cell lines; format: cell-based
tumor cells = assay: Anti-proliferative activity across tumor cell lines; format: cell-based

Compound	sensitivity to growth inhibition by erlotinib (BxPC3 cells)	reduction in tumor growth as single agent (Calu-6 NSCLC tumor cells)	sensitivity to growth inhibition by erlotinib (H292 cells)	sensitivity to growth inhibition by erlotinib (H358 cells)	apoptosis relative to DMSO treated cells, single agent [1]	sensitivity to growth inhibition by erlotinib (HCT-116 cells)	IC50 [2]	down-regulation of phosphorylation of S6 ([3]; relatively insensitive cell lines that have undergone EMT (H460, Calu6, HCT-116))	down-regulation of phosphorylation of S6 ([3]; three sensitive epithelial cell lines (H292, H358, BxPC3))	sensitivity to growth inhibition by erlotinib (Calu6 cells)	apoptosis relative to DMSO treated cells, single agent (three ovarian cell lines)	solubility [4]	sensitivity to growth inhibition by erlotinib (H460 cells; 10 μM erlotinib, 72 hours, maximal growth inhibition greater than 50% = high sensitivity)	cancer cell lines in which pAkt (S473) is inhibited (pAkt (S473))	cell lines in which treatment increases pAkt (S473) (pAkt (S473))	cell lines in a given tumor type that are insensitive (tumor cells)	Emax (H460 cells; Homo sapiens, NCI-H460, rapamycin without erlotinib, read-out: maximal efficacy (growth inhibition))	IC50 (H460 cells; Homo sapiens, NCI-H460, rapamycin without erlotinib, read-out: potency (growth inhibition))
C#Cc1cccc(Nc2ncnc3cc(OCCOC)c(OCCOC)cc23)c1 [erlotinib, [6,7-bis(2-methoxyethoxy)-4-quinazolin-4-yl]-(3-ethynylphenyl) amine]	most sensitive	no statistically significant reduction; also recorded: Neither rapamycin or erlotinib showed significant reduction	most sensitive	most sensitive	modest increase	relatively insensitive	> 10000 nM	less pronounced down-regulation	efficiently down-regulate	relatively insensitive	increased apoptosis	10 µM (≈ 3.93 µg/mL)	relatively insensitive					
CO[C@H]1C[C@@H]2CC[C@@H](C)[C@@](O)(O2)C(=O)C(=O)N2CCCC[C@H]2C(=O)O[C@H]([C@H](C)C[C@@H]2CC[C@@H](O)[C@H](OC)C2)CC(=O)[C@H](C)/C=C(\C)[C@@H](O)[C@@H](OC)C(=O)[C@H](C)C[C@H](C)/C=C/C=C/C=C/1C [rapamycin]														~20%	~65%	approximately 50%	34%	0.267 nM
